Experimental data taken from article PMC9823097, “Dysregulation of PRMT5 in chronic lymphocytic leukemia promotes progression with high risk of Richter’s transformation” (Nature Communications, 2023).

Assays:
[1] = biological target: recombinant human PRMT5/MEP50 (Homo sapiens, UniProt O14744); assay: Filtration binding assay with recombinant human PRMT5/MEP50 (biochemical potency)
Experimental: For biochemical potency and selectivity, PRT382 was solubilized in 100% DMSO and diluted serially threefold. […] Standard reactions were performed in a total volume of 30 μl in assay buffer, with 300 nM histone H4-based AcH4-23 (Anaspec: AS-65002) as substrate. To this was added the PRMT5/MEP50 complex diluted to provide a final assay concentration of 2.5 nM, and the compounds were allowed to preincubate for 20 min at 37 °C. The reaction was initiated by adding S-[3 H-methyl]-adenosyl-L-methionine (PerkinElmer: NET155001MC) to a final concentration of 1 μM. Following a 30 min of incubation at 37 °C, the reaction was stopped by adding 25 μL of 8 M Guanidine HCl. To each reaction, 150 µL of SPA beads suspension (Perkinelmer: RPNQ0012) was added and incubated while shaking at room temperature for 30 min. The plate was centrifuged at 100 xg for 30 s before reading in a scintillation counter. IC50 values were determined by fitting the data to with Hill Slope using GraphPad Prism software (v9.2.0).

[2] = biological target: 38 other methyltransferases (e.g DNMTs, MLL1-4 complexes, EZH1 and EZH2 complexes, NRMTs, NSD, SUVs, SMYs, SETs, PRDM9), and other members of the PRMT family; assay: Methyltransferase selectivity panel, 3H-SAM radioligand with filtration binding; type: biochemical
Experimental: (§1) For in vitro assays, the compound was stored in a 10 mM solution in DMSO. For in vivo assays, PRT382 was dissolved in a 0.5% methylcellulose, 0.1% tween solution, and administered as oral gavage. For Pharmacokinetic studies, PRT382 was formulated in 0.5% carboxymethylcellulose sodium salt + 0.5%Tween80 as a 1 mg/mL suspension for 10 mg/kg and was administered in a 10 mL/kg dose volume by oral gavage to CD-1 mice. Blood was collected at various time points after dosing into EDTA-K2 tubes, placed on ice, and stored at −80 °C prior to analysis by LC-MS/MS. For biochemical potency and selectivity, PRT382 was solubilized in 100% DMSO and diluted serially threefold. For assessment of selectivity, enzyme activity against a panel of 37 methyltransferases was evaluated using 3H-SAM as a radioligand probe with filtration binding. PRT382 was tested in duplicate at a final concentration of 10 µM. The percent of enzyme activity relative to DMSO control condition was determined for each enzyme.

KARPAS-422 = assay: Anti-proliferative activity, MTS assay, KARPAS-422; type: cell-based; conditions: Homo sapiens, DLBCL, read-out: PRT382 IC50 (anti-proliferative)
Experimental: Cell proliferation was assessed via MTS (3-[4,5-dimethylthiazol-2-yl]-5-[3-carboxymethoxyphenyl]-2-[4-sulfophenyl]-2H-tetrazolium) assay (Sigma), using the tetrazolium dye […]. Cell apoptosis was evaluated by Annexin V-FITC or PE and propidium iodide (PI) staining using FC500 cytometer (Beckman-Coulter, Indianapolis, IN) following the manufacturer’s procedure (BD Pharmingen, Billerica, MA)[55]. For cell cycle analysis, cells were fixed with cold ethanol overnight and then stained before analysis with 30 μg/mL propidium iodide (Invitrogen) and 200 μg/mL RNase (Sigma-Aldrich) in 0.1 % v/v Triton X-100 (Sigma-Aldrich). Cell cycle data analysis was performed using ModFit LT software (Verity Software House, Topsham, ME).

[3] = Pharmacokinetics in dogs (clearance, oral bioavailability); type: in vivo
[4] = Tolerability after 5 daily oral doses in WT CD-1 mice; type: in vivo; conditions: 10, 30 and 100 mg/kg
Experimental: as §1

recombinant human PRMT5/MEP50, sequence (O14744 whole entry): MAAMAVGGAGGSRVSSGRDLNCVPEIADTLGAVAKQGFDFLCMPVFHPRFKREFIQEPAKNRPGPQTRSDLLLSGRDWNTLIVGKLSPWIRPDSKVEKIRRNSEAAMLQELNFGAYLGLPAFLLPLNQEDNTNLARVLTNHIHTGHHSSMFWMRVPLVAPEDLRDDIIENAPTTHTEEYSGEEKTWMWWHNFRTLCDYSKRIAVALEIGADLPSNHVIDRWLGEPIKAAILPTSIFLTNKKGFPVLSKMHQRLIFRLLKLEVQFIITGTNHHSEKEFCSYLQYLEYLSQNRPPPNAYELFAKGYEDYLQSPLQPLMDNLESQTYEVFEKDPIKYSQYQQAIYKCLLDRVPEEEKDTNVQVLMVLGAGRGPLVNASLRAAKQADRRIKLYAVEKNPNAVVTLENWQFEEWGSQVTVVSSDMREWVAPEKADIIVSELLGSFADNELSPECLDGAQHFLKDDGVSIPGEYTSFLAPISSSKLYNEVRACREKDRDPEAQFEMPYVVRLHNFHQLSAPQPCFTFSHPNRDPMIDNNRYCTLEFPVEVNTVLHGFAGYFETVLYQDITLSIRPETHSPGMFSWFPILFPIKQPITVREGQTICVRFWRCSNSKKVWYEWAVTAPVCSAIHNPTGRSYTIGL
recombinant human PRMT5/MEP50, sequence (Q9BQA1 whole entry partner): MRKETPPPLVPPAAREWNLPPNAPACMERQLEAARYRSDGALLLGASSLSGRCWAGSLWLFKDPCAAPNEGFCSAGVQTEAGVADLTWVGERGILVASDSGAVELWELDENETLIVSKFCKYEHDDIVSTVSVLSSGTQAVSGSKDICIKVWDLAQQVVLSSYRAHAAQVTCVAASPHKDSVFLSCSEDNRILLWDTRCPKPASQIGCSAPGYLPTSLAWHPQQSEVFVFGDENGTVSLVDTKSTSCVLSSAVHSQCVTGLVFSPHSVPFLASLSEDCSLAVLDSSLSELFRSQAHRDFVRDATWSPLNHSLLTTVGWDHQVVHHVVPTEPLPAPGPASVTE

SMILES: CON=c1nc[nH]c2c1ccn2[C@@H]1O[C@H]([C@H](O)c2ccc(Cl)c(Cl)c2)[C@@H](O)[C@H]1O.Cl [PRT382, (2 R,3 S,4 R,5 R)-2-[(R)-(3,4-dichlorophenyl)-hydroxy-methyl]-5-[(4Z)-4-methoxyimino-1H-pyrrolo[2,3-d]pyrimidin-7-yl]tetrahydrofuran-3,4-diol hydrochloride]
- PRT382 dose-response signal (Figure 6C; DMSO = 100.515) ([1]; 508.1 pM): 76.3419
- PRT382 dose-response signal (Figure 6C; DMSO = 100.515) ([1]; 1.52416e-9 M): 63.1814
- PRT382 dose-response signal (Figure 6C; DMSO = 100.515) ([1]; 4.57247e-9 M): 38.5693
- PRT382 dose-response signal (Figure 6C; DMSO = 100.515) ([1]; 1.37174e-8 M): 22.7886
- PRT382 dose-response signal (Figure 6C; DMSO = 100.515) ([1]; 4.11523e-8 M): 12.7118
- PRT382 dose-response signal (Figure 6C; DMSO = 100.515) ([1]; 1.23457e-7 M): 6.679
- PRT382 dose-response signal (Figure 6C; DMSO = 100.515) ([1]; 3.7037e-7 M): 2.863
- PRT382 dose-response signal (Figure 6C; DMSO = 100.515) ([1]; 1.11111e-6 M): 1.261
- PRT382 dose-response signal (Figure 6C; DMSO = 100.515) ([1]; 3.33333e-6 M): 0.4291
- PRT382 dose-response signal (Figure 6C; DMSO = 100.515) ([1]; 1e-5 M): 0.1164
- IC50 ([2]; 38 other methyltransferases and other PRMT family members, read-out: IC50 against other methyltransferases): > 1000 nM
- inhibition of other tested methyltransferases ([2]; PRT382 at 10 uM): ≤ 20%
- IC50 (KARPAS-422): 23 nM
- clearance [3]: low
- bioavailability ([3]; dog, in vivo, po, read-out: oral bioavailability (F%)): 70 to 80%
- tolerability [4]: well-tolerated
- observable toxicity ([4]; after 5 daily oral doses): without observable toxicity
